Consider six compounds from US4875922A, “Pyrimidine derivatives” (Imperial Chemical Industries PLC, priority 1986, dated 1989).

The test system of one experiment is Wheat. Nature of the experiment: Whole plant screen for plant growth regulator activity, wheat (WW). In kind it is in vivo, Wheat (Timmo). The settings on record: WW, 4000 ppm (4 kg/ha), visual score after 2-6 weeks; for T = Tillering or side shooting: * = decrease in tillering. Here is the method:
(§1) Compounds 1 to 3 in Table 1 were tested for plant growth regulator activity against five species for various growth effects relevant to plant growth regulation.
(§2) The plant species used in this screen are presented in Table II with the leaf stage at which they were sprayed. Each chemical was applied at 4000 ppm (4 kg/ha in a 1000 l/ha field volume) using a tracksprayer and a SS8004E (Teejet) nozzle.
(§3) After spray the plants were grown in a glasshouse with 25° C. day/22° C. night temperatures and supplementary lighting was supplied when necessary (from mercury vapour lamps), to provide a 16 hour photoperiod. The exception to this were the temperate cereals, wheat and barley which were grown in 16° C. day/13° C. night temperatures.
(§4) After 2-6 weeks in the glasshouse, depending on the time of year, the plants were visually assessed for morphological characteristics. Formulation blanks were used as controls to assess the plants.
(§5) Additional compounds in Table I were tested for plant growth regulator activity using the method of Example 60 except that Tomato was included in the test as an additional species. Tomato, Ailsa Craig, was grown in a single 3 inch pot in peat and treated at the 2 to 21/2 leaves growth stage. The results were presented in Table IV in which Tomato is indicated by the code TO and the Key is otherwise as for Table III.

A further experiment relates to Apple. Nature of the experiment: Whole plant screen for plant growth regulator activity, apple (AP). Type of experiment: in vivo, Apple (Red Delicious). The settings on record: 4000 ppm (4 kg/ha), visual score after 2-6 weeks. Here is the method: as §1, §2, §3, §4, §5
Experiment [1] relates to Rice. Description: Intermediate Retardant Test, rice. The settings on record: Oryza sativa, 672 h, read-out: Percentage Reduction in Height of Rice (Compared to formulation blank). In kind it is in vivo, Rice (Ishikari). An excerpt: (§6) Three species are involved in this test RICE, SPRING-BARLEY and APPLES. The variety and growth stages at spray are outlined in Table V. Compounds were applied at 500 ppm and 2000 ppm respectively (0.5 kg and 2 kg/ha^-1 at a field volume of 1000 l/ha^-1) as an overall spray except in the case of certain tests on APPLES. This gives a foliar and root component in the test, i.e., this test will detect the activity of both root and foliar acting compounds. The intermediate retardant test on APPLES of which the results are given in Table IX was different, in that a foliar (only) spray at 2000 ppm was compared with a root drench, also at 2000 ppm. The rice was grown in 4" `paddy` pots, i.e., the roots and bottom of the stems are immersed in water under conditions corresponding to those in paddy fields. Spring barley and apples were grown in 4" pots. The plants were assessed for height to top-most ligule at approximately 28 days after treatment for spring barley and rice and for height to apex at approximately 28 days after the treatment for apples. In each case the result for the 500 ppm and 2000 ppm test for each compound is compared to the height of the formulation blank in that test, presented as a percentage reduction in height compared to the formulation blank.
(§7) The prior art compound was compared with compounds of the present invention in side-by-side comparisons using the Intermediate Retardant Test described in Example 62, and the results are given in Tables X to XII where `A` is the prior art compound, 2-methyl-1-isopropyl-1-(pyrimidin-5-yl)-propan-1-ol).

The next experiment has as its system Spring Barley. Nature of the experiment: Intermediate Retardant Test, spring barley. Type of experiment: in vivo, Spring Barley (Atem/kym). As to conditions: Hordeum vulgare, 672 h, read-out: Percentage Reduction in Height of Spring Barley (Compared to formulation blank).
Description: as §6, §7

Another experiment concerns Barley. Description: Whole plant screen for plant growth regulator activity, barley (BR). In kind it is in vivo, Barley (Atem). The settings on record: BR, 4000 ppm (4 kg/ha), visual score after 2-6 weeks; for T = Tillering or side shooting: * = decrease in tillering. On the procedure: as §1, §2, §3, §4, §5
Experiment [2] deals with Rice. Description: Whole plant screen for plant growth regulator activity, rice (RC). Type of experiment: in vivo, Rice (Ishikari). As to conditions: 4000 ppm (4 kg/ha), visual score after 2-6 weeks. Here is the method:
as §1, §2, §3, §4, §5

A further experiment concerns Apples. Nature of the experiment: Intermediate Retardant Test, apples, foliar spray compared with root drench. Type of experiment: in vivo, Apples (Red Delicious). The settings on record: 672 h, read-out: Percentage Reduction in Height of Apples (Compared to formulation blank); for percent reduction in plant height at 2000 µg/mL: soil, 2000 pmm (Root), root drench.
Description: as §6, §7

For another experiment, the system named is Tomato. Description: Whole plant screen for plant growth regulator activity, tomato (TO). As to conditions: 4000 ppm (4 kg/ha), visual score after 2-6 weeks. Type of experiment: in vivo, Tomato (Ailsa Craig). Here is the method:
as §2, §3, §4, §5
An astrisk (*) after a score under "T" (tillering) indicated a decrease in tillering.

Where [3] appears, read: overall spray, approximately 28 days, Table VI.
The mark [4] stands for this setting: overall spray, approximately 28 days, Table VII.
The mark [5] stands for this setting: 2000 ppm (Foliar), approximately 28 days, Table IX.
Where [6] appears, read: approximately 28 days, Table IX.
[7] abbreviates: side-by-side comparison with prior art compound, Table X.
Setting [8] is: side-by-side comparison with prior art compound, Table XI.
[9] abbreviates: 2000 ppm (Foliar), side-by-side comparison with prior art compound, Table XII.
Setting [10] is: 2000 ppm (Root), side-by-side comparison with prior art compound, Table XII.

Like-named read-outs stand apart in the source and are kept apart here.

On to `CC(C)C(O)(C#CC(C)(C)C)c1cncnc1` (stereo not drawn) [Compound 10, 2-Methyl-1-(3,3-dimethylbut-1-yne)-1-(pyrmidin-5-yl)propan-1-ol], for which, in the experiment on Wheat, the “G = Greening effect” value is listed as 2 (31-60%), the “I = Interligular or internodal length reduction” value is given as 3 (61-100%), the “R = Retardation” value was 2 (31-60%) and the “T = Tillering or side shooting” value is given as 1 (10-30%). Moreover, in the experiment on Apple, the “I = Interligular or internodal length reduction” value is listed as 3 (61-100%) and the “R = Retardation” value is given as 2 (31-60%). Moreover, in the experiment with Rice [1] (setting [3]), the Percent reduction in rice height vs formulation blank at 500 ppm amounted to 9% and the Percent reduction in rice height vs formulation blank at 2000 ppm amounted to 20%. In addition, in the experiment with Spring Barley (setting [4]), the percent reduction in plant height at 500 ppm worked out at 29% and the percent reduction in plant height at 2000 ppm is 62%. Besides, in the experiment on Barley, the “G = Greening effect” value is given as 2 (31-60%), the “I = Interligular or internodal length reduction” value is on record as 3 (61-100%), the “R = Retardation” value was 2 (31-60%) and the “T = Tillering or side shooting” value is 2 (31-60%). Besides, in the experiment on Rice [2], the “G = Greening effect” value is listed as 1 (10-30%), the “I = Interligular or internodal length reduction” value was 2 (31-60%) and the “R = Retardation” value is recorded as 2 (31-60%). Also, in the experiment with Apples (setting [5]), the percent reduction in plant height at 2000 ppm was 4%. The percent reduction in plant height at 2000 µg/mL in the experiment with Apples (setting [6]) stood at 69%.
With `CCCCCC(O)(c1cncnc1)C(C)(C)C` (stereo not drawn) [Compound 15, 2,2-Dimethyl-1-(pentyl)-1-(pyrimidin-5-yl)-propan-1-ol], in the experiment on Wheat, the “G = Greening effect” value was 1 (10-30%), the “I = Interligular or internodal length reduction” value is 3 (61-100%), the “R = Retardation” value is reported as 2 (31-60%) and the “T = Tillering or side shooting” value is listed as 1 (10-30%). Also, in the experiment with Tomato, the “G = Greening effect” value is listed as 2 (31-60%), the “I = Interligular or internodal length reduction” value is listed as 2 (31-60%) and the “R = Retardation” value was 2 (31-60%). Moreover, in the experiment with Rice [1] (setting [3]), the Percent reduction in rice height vs formulation blank at 500 ppm came to 13% and the Percent reduction in rice height vs formulation blank at 2000 ppm worked out at 39%. Also, in the experiment with Spring Barley (setting [4]), the percent reduction in plant height at 500 ppm came to 14% and the percent reduction in plant height at 2000 ppm is 33%. In the experiment on Barley, the “I = Interligular or internodal length reduction” value is listed as 2 (31-60%) and the “R = Retardation” value is reported as 2 (31-60%). Also, the percent reduction in plant height at 2000 ppm in the experiment on Apples (setting [5]) worked out at 44.2%. In the experiment with Apples (setting [6]), the percent reduction in plant height at 2000 µg/mL turned out to be 71.1%.
As to `CC(C)C(O)(c1cncnc1)C(C)C` [A, 2-methyl-1-isopropyl-1-(pyrimidin-5-yl)-propan-1-ol, reference compound], in the experiment with Rice [1] (setting [7]), the Percent reduction in rice height vs formulation blank at 500 ppm was 2% and the Percent reduction in rice height vs formulation blank at 2000 ppm stood at 0%. Also, in the experiment on Spring Barley (setting [8]), the percent reduction in plant height at 500 ppm was found to be 0% and the percent reduction in plant height at 2000 ppm came out at 0%. For the same compound, in the experiment on Apples (setting [9]), the percent reduction in plant height at 2000 ppm was 0%. Also, in the experiment with Apples (setting [10]), the percent reduction in plant height at 2000 ppm was found to be 23.5%.
Consider `CCC(C)C#CC(O)(c1cncnc1)C(C)C` (stereo not drawn) [Compound 5, 2-Methyl-1-(3-methylpent-1-yne)-1-(pyrimidin-5-yl)-propan-1-ol], for which, in the experiment on Wheat, the “G = Greening effect” value was 2 (31-60%), the “I = Interligular or internodal length reduction” value is 3 (61-100%), the “R = Retardation” value is 3 (61-100%) and the “T = Tillering or side shooting” value was 1 (10-30%). Moreover, in the experiment on Tomato, the “G = Greening effect” value was 2 (31-60%), the “I = Interligular or internodal length reduction” value is listed as 2 (31-60%) and the “R = Retardation” value was 2 (31-60%). Also, in the experiment on Rice [1] (setting [3]), the Percent reduction in rice height vs formulation blank at 500 ppm was 39% and the Percent reduction in rice height vs formulation blank at 2000 ppm was found to be 68%. Besides, in the experiment on Spring Barley (setting [4]), the percent reduction in plant height at 500 ppm turned out to be 38% and the percent reduction in plant height at 2000 ppm was 72%. Besides, in the experiment on Barley, the “G = Greening effect” value was 1 (10-30%), the “I = Interligular or internodal length reduction” value is 3 (61-100%), the “R = Retardation” value is on record as 3 (61-100%) and the “T = Tillering or side shooting” value was 3 (61-100%). In addition, in the experiment with Rice [2], the “I = Interligular or internodal length reduction” value was 2 (31-60%) and the “R = Retardation” value is listed as 2 (31-60%). Also, in the experiment on Rice [2] (* = decrease in tillering), the “T = Tillering or side shooting” value is on record as 1 (10-30%). Moreover, the percent reduction in plant height at 2000 ppm in the experiment on Apples (setting [5]) was found to be 25.6%. The percent reduction in plant height at 2000 µg/mL in the experiment with Apples (setting [6]) was 76.1%.
Regarding `CC(C)CC#CC(O)(c1cncnc1)C(C)C` (stereo not drawn) [Compound 4, 2-methyl-1-(4-methylpent-1-yne)-1-(pyrimidin-5-yl)-propan-1-ol], the Percent reduction in rice height vs formulation blank at 500 ppm in the experiment with Rice [1] (setting [7]) worked out at 45%. For the same compound, in the experiment with Rice [1] (setting [7]), the Percent reduction in rice height vs formulation blank at 2000 ppm stood at 66%. The percent reduction in plant height at 500 ppm in the experiment on Spring Barley (setting [8]) worked out at 53%. Besides, the percent reduction in plant height at 2000 ppm with Spring Barley (setting [8]) came to 64%; in the experiment on Apples (setting [9]) it was 46.8%; in the experiment with Apples (setting [10]) it was 64.6%.
Take `CCC(C)CC#CC(O)(c1cncnc1)C(C)C` (stereo not drawn) [Compound 11, 2-Methyl-1-(4-methylhex-1-yne)-1-(pyrimidin-5-yl)propan-1-ol]: in the experiment on Rice [1] (setting [3]), the Percent reduction in rice height vs formulation blank at 500 ppm was 4% and the Percent reduction in rice height vs formulation blank at 2000 ppm stood at 14%. For the same compound, in the experiment with Spring Barley (setting [4]), the percent reduction in plant height at 500 ppm worked out at 5% and the percent reduction in plant height at 2000 ppm was 47%. Also, the percent reduction in plant height at 2000 ppm in the experiment with Apples (setting [5]) was 6%. Moreover, in the experiment on Apples (setting [6]), the percent reduction in plant height at 2000 µg/mL is 55%.
